Assay results reported in paper PMC9005681, “Use of AD Informer Set compounds to explore validity of novel targets in Alzheimer's disease pathology” (Alzheimer's & Dementia : Translational Research & Clinical …, 2022).

Columns and labels:
Assay in all cases: PDSP GPCR panel primary binding assays at 10 μM
[1] = biological target: T1, cloned human or rodent CNS receptors, channels, and transporters (PDSP panel) (Homo sapiens, UniProt P08908); conditions: primary assay
T1 construct: expressed in transfected cells
T1 sequence (P08908 1-422): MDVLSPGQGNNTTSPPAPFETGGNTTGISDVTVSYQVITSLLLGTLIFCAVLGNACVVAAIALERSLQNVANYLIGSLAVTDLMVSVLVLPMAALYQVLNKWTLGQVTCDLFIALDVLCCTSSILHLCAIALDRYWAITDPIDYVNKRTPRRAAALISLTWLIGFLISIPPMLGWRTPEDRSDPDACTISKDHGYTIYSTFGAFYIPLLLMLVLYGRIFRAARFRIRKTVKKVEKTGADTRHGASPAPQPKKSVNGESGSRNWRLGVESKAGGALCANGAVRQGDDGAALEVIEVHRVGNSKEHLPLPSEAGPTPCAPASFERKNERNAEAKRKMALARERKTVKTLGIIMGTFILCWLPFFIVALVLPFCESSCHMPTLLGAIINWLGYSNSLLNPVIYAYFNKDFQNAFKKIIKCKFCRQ
Method in brief: (§1)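 Radioligand displacement at cloned human or rodent CNS targets: 46–47 primary binding assays run in quadruplicate at 10 μM. Targets where the compound displaced an average of >50% of radiolabeled standard ligand went to secondary binding in 11-point dose-response, in triplicate; none run for H3, PBR or GABAA.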

[2] = biological target: T2, cloned human or rodent CNS receptors, channels, and transporters (PDSP panel) (Homo sapiens, UniProt P11229); conditions: primary assay
T2 construct: expressed in transfected cells
T2 sequence (P11229 1-460): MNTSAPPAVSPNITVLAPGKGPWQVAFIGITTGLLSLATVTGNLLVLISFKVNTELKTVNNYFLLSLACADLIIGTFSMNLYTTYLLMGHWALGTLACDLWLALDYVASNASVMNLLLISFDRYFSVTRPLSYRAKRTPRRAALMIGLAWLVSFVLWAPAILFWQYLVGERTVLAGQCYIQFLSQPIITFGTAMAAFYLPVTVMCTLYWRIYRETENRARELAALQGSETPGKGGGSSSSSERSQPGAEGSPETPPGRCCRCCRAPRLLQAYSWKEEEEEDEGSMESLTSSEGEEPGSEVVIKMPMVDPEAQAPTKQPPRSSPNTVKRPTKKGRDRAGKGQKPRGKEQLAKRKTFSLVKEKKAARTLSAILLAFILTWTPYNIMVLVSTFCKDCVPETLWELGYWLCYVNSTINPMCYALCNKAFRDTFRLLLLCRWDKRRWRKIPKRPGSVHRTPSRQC
Method in brief: as §1

[3] = biological target: T3, cloned human or rodent CNS receptors, channels, and transporters (PDSP panel) (Homo sapiens, UniProt P20309); conditions: primary assay
T3 construct: expressed in transfected cells
T3 sequence (P20309 whole entry): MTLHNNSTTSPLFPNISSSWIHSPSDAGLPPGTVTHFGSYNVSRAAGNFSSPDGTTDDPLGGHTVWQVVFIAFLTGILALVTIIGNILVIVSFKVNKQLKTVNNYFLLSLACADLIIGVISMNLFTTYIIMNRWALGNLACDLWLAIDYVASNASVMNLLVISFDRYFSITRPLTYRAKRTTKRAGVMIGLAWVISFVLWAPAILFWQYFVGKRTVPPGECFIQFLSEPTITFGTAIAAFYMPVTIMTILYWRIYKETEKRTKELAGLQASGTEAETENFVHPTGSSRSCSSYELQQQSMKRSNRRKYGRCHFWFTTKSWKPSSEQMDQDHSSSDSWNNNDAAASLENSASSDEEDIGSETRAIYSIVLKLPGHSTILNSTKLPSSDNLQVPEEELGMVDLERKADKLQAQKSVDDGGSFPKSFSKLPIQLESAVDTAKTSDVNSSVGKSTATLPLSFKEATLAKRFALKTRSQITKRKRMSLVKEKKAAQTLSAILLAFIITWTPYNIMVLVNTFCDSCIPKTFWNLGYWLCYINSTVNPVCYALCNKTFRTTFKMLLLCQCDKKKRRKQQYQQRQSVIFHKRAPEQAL
Method in brief: as §1

[4] = biological target: T4, cloned human or rodent CNS receptors, channels, and transporters (PDSP panel) (Homo sapiens, UniProt P25021); conditions: primary assay
T4 construct: expressed in transfected cells
T4 sequence (P25021 whole entry): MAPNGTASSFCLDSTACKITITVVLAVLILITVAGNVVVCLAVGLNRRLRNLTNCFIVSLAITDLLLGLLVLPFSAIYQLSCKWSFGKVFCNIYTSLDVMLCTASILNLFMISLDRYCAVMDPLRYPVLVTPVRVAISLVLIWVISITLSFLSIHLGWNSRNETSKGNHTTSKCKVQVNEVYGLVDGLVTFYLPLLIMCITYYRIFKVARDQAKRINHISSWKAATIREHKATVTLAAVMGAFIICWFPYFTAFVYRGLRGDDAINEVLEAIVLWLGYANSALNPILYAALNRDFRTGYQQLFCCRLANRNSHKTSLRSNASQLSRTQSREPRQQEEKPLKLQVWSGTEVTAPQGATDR
Method in brief: as §1

[5] = biological target: T5, cloned human or rodent CNS receptors, channels, and transporters (PDSP panel) (Homo sapiens, UniProt P28222); conditions: primary assay
T5 construct: expressed in transfected cells
T5 sequence (P28222 whole entry): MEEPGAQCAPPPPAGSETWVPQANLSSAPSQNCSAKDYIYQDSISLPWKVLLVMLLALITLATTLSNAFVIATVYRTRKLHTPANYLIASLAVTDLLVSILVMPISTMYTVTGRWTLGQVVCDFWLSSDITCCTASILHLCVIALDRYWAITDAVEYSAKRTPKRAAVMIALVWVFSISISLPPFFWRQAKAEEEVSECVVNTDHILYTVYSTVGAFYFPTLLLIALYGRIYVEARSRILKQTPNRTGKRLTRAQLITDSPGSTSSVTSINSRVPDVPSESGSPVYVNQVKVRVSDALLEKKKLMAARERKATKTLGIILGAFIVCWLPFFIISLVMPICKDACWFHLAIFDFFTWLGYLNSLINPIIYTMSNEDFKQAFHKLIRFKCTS
Method in brief: as §1

[6] = biological target: T6, cloned human or rodent CNS receptors, channels, and transporters (PDSP panel) (Homo sapiens, UniProt P34969); conditions: primary assay
T6 construct: expressed in transfected cells
T6 sequence (P34969 whole entry): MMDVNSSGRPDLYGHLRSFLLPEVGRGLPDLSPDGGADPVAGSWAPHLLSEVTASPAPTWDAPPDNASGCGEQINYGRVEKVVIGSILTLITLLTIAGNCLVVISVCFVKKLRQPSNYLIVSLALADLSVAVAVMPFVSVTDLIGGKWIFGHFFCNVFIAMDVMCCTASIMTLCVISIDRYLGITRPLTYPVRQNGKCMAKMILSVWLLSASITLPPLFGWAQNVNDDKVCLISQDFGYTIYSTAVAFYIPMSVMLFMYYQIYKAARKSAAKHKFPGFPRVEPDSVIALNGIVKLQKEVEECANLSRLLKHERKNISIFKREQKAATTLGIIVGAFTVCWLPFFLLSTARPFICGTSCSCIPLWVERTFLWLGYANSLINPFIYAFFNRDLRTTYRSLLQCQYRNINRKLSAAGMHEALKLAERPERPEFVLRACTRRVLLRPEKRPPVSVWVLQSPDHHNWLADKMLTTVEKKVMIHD
Method in brief: as §1

[7] = biological target: T7, cloned human or rodent CNS receptors, channels, and transporters (PDSP panel) (Homo sapiens, UniProt P35367); conditions: H1, primary assay
T7 construct: expressed in transfected cells
T7 sequence (P35367 whole entry): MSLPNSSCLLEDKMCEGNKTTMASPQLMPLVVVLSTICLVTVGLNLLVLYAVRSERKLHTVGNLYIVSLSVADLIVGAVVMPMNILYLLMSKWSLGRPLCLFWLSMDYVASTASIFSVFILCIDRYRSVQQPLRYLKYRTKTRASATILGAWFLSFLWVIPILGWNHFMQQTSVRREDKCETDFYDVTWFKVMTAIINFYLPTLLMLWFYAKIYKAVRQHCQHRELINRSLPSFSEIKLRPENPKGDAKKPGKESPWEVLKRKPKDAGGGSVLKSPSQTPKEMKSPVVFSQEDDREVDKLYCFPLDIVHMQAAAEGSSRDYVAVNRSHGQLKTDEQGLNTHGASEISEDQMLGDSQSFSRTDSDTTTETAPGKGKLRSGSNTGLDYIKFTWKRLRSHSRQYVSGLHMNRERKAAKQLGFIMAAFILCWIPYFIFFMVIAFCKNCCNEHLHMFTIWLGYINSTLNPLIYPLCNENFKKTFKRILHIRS
Method in brief: as §1

[8] = biological target: T8, cloned human or rodent CNS receptors, channels, and transporters (PDSP panel) (Homo sapiens, UniProt P46098); conditions: primary assay
T8 construct: expressed in transfected cells
T8 sequence (P46098 24-478): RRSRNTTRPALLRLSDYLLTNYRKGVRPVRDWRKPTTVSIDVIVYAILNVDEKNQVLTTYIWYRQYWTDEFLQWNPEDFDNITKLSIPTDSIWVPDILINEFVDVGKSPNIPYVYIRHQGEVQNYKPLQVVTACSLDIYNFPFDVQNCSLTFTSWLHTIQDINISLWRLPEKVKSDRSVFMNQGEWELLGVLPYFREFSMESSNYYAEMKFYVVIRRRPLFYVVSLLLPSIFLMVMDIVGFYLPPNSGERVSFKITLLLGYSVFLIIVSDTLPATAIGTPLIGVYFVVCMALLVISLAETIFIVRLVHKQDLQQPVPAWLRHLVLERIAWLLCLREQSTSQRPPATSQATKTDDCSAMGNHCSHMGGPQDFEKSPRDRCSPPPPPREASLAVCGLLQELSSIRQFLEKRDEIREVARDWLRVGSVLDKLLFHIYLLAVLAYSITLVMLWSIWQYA
Method in brief: as §1

[9] = biological target: T9, cloned human or rodent CNS receptors, channels, and transporters (PDSP panel) (Homo sapiens, UniProt Q01959); conditions: primary assay
T9 construct: expressed in transfected cells
T9 sequence (Q01959 whole entry): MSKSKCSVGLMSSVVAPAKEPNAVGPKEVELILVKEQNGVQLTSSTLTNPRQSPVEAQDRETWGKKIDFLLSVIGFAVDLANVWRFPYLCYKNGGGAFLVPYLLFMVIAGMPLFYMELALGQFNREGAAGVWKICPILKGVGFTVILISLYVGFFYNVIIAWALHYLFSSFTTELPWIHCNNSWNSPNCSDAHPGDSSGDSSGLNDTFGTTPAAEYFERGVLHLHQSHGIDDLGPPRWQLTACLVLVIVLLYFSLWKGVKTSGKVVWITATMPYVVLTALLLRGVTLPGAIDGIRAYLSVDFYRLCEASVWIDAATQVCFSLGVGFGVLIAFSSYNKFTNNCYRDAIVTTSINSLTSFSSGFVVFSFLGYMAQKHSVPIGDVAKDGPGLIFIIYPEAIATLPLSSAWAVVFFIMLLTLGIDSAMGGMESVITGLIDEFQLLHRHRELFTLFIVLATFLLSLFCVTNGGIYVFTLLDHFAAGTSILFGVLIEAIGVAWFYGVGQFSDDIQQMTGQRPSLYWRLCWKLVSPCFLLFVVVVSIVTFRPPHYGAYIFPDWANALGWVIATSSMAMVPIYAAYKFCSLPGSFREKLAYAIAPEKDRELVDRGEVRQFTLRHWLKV
Method in brief: as §1

O=C(NC1CC1)C(=O)C(Cc1ccccc1)NC(=O)[C@H]1CCC(=O)N1Cc1ccccc1 (stereo partly shown) [UNC10302676A, ABT-957 (Alicapistat)]
Mean % ([1]; 5-HT1A, mean inhibition): 3.84%
Inhibition 1 ([1]; 5-HT1A, replicate 1): 12.84%
Inhibition 2 ([1]; 5-HT1A, replicate 2): 2.5%
Inhibition 3 ([1]; 5-HT1A, replicate 3): 6.64%
Inhibition 4 ([1]; 5-HT1A, replicate 4): -6.64%
Mean % ([2]; M1, mean inhibition): -5.83%
Inhibition 1 ([2]; M1, replicate 1): 12.89%
Inhibition 2 ([2]; M1, replicate 2): -15.33%
Inhibition 3 ([2]; M1, replicate 3): -17.78%
Inhibition 4 ([2]; M1, replicate 4): -3.1%
Mean % ([3]; M3, mean inhibition): -7.1%
Inhibition 1 ([3]; M3, replicate 1): 3.98%
Inhibition 2 ([3]; M3, replicate 2): -16.69%
Inhibition 3 ([3]; M3, replicate 3): -10.47%
Inhibition 4 ([3]; M3, replicate 4): -5.21%
Mean % ([4]; H2, mean inhibition): 2.47%
Inhibition 1 ([4]; H2, replicate 1): -6.09%
Inhibition 2 ([4]; H2, replicate 2): 2.81%
Inhibition 3 ([4]; H2, replicate 3): -1.92%
Inhibition 4 ([4]; H2, replicate 4): 15.07%
Mean % ([5]; 5-HT1B, mean inhibition): 8.92%
Inhibition 1 ([5]; 5-HT1B, replicate 1): 9.16%
Inhibition 2 ([5]; 5-HT1B, replicate 2): 10.49%
Inhibition 3 ([5]; 5-HT1B, replicate 3): 8.83%
Inhibition 4 ([5]; 5-HT1B, replicate 4): 7.18%
Mean % ([6]; 5-HT7A, mean inhibition): 15.15%
Inhibition 1 ([6]; 5-HT7A, replicate 1): 8.6%
Inhibition 2 ([6]; 5-HT7A, replicate 2): 21.46%
Inhibition 3 ([6]; 5-HT7A, replicate 3): 9.06%
Inhibition 4 ([6]; 5-HT7A, replicate 4): 21.46%
Mean % ([7]; mean inhibition): 47.25%
Inhibition 1 ([7]; replicate 1): 60.11%
Inhibition 2 ([7]; replicate 2): 50.46%
Inhibition 3 ([7]; replicate 3): 44.57%
Inhibition 4 ([7]; replicate 4): 33.86%
Mean % ([8]; 5-HT3, mean inhibition): -3.28%
Inhibition 1 ([8]; 5-HT3, replicate 1): -2.95%
Inhibition 2 ([8]; 5-HT3, replicate 2): -3.65%
Inhibition 3 ([8]; 5-HT3, replicate 3): -8.86%
Inhibition 4 ([8]; 5-HT3, replicate 4): 2.33%
Mean % ([9]; DAT, mean inhibition): 30.14%
Inhibition 1 ([9]; DAT, replicate 1): 25.06%
Inhibition 2 ([9]; DAT, replicate 2): 27.22%
Inhibition 3 ([9]; DAT, replicate 3): 40.62%
Inhibition 4 ([9]; DAT, replicate 4): 27.66%

c1cn2cc(-c3ccc4cn[nH]c4c3)nc(Nc3ccc(N4CCOCC4)cc3)c2n1 [UNC10302678A, Entospletinib (GS-9973)]
Inhibition 1 ([1]; Receptor 5-HT1A, 10 μM): 14.91%
Inhibition 2 ([1]; Receptor 5-HT1A, 10 μM): -0.95%
Inhibition 3 ([1]; Receptor 5-HT1A, 10 μM): -3.19%
Inhibition 4 ([1]; Receptor 5-HT1A, 10 μM): 6.29%
Mean % ([1]; Receptor 5-HT1A, 10 μM, mean of Inhibition 1-4): 4.27%
Inhibition 1 ([2]; Receptor M1, 10 μM): 19.66%
Inhibition 2 ([2]; Receptor M1, 10 μM): -3.67%
Inhibition 3 ([2]; Receptor M1, 10 μM): -8.18%
Inhibition 4 ([2]; Receptor M1, 10 μM): 2.73%
Mean % ([2]; Receptor M1, 10 μM, mean of Inhibition 1-4): 2.64%
Inhibition 1 ([3]; Receptor M3, 10 μM): 13.32%
Inhibition 2 ([3]; Receptor M3, 10 μM): 23.97%
Inhibition 3 ([3]; Receptor M3, 10 μM): 7.51%
Inhibition 4 ([3]; Receptor M3, 10 μM): 7.37%
Mean % ([3]; Receptor M3, 10 μM, mean of Inhibition 1-4): 13.04%
Inhibition 1 ([4]; Receptor H2, 10 μM): 34.86%
Inhibition 2 ([4]; Receptor H2, 10 μM): 31.07%
Inhibition 3 ([4]; Receptor H2, 10 μM): 0.58%
Inhibition 4 ([4]; Receptor H2, 10 μM): -19.99%
Mean % ([4]; Receptor H2, 10 μM, mean of Inhibition 1-4): 11.63%
Inhibition 1 ([5]; Receptor 5-HT1B, 10 μM): 21.82%
Inhibition 2 ([5]; Receptor 5-HT1B, 10 μM): -6.09%
Inhibition 3 ([5]; Receptor 5-HT1B, 10 μM): 2.36%
Inhibition 4 ([5]; Receptor 5-HT1B, 10 μM): -8.65%
Mean % ([5]; Receptor 5-HT1B, 10 μM, mean of Inhibition 1-4): 2.36%
Inhibition 1 ([6]; Receptor 5-HT7A, 10 μM): 7.05%
Inhibition 2 ([6]; Receptor 5-HT7A, 10 μM): 11.23%
Inhibition 3 ([6]; Receptor 5-HT7A, 10 μM): 9.37%
Inhibition 4 ([6]; Receptor 5-HT7A, 10 μM): 35.72%
Mean % ([6]; Receptor 5-HT7A, 10 μM, mean of Inhibition 1-4): 15.84%
Inhibition 1 ([8]; Receptor 5-HT3, 10 μM): 20.59%
Inhibition 2 ([8]; Receptor 5-HT3, 10 μM): 12.98%
Inhibition 3 ([8]; Receptor 5-HT3, 10 μM): 21.06%
Inhibition 4 ([8]; Receptor 5-HT3, 10 μM): 14.69%
Mean % ([8]; Receptor 5-HT3, 10 μM, mean of Inhibition 1-4): 17.33%
Inhibition 1 ([9]; Receptor DAT, 10 μM): 27.87%
Inhibition 2 ([9]; Receptor DAT, 10 μM): 18.37%
Inhibition 3 ([9]; Receptor DAT, 10 μM): 25.5%
Inhibition 4 ([9]; Receptor DAT, 10 μM): 31.55%
Mean % ([9]; Receptor DAT, 10 μM, mean of Inhibition 1-4): 25.82%
